Results as given in ChEMBL document CHEMBL1201862, “PubChem BioAssay data set” (2004).
Active and inactive are the calls of the source.

How the values were obtained:
[1] = target: Mitochondrial peptide methionine sulfoxide reductase (Bos taurus, UniProt P54149); assay type: functional;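 also: absorbance read-out, biochemical high-throughput dose-response screen for MsrA inhibitors, confirmatory; recombinant bovine MsrA coupled to E. coli TrxB with NADPH and selenocystamine; potency is for inhibitors of MsrA activity on DMSO substrate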
Sequence of Mitochondrial peptide methionine sulfoxide reductase (P54149 whole entry): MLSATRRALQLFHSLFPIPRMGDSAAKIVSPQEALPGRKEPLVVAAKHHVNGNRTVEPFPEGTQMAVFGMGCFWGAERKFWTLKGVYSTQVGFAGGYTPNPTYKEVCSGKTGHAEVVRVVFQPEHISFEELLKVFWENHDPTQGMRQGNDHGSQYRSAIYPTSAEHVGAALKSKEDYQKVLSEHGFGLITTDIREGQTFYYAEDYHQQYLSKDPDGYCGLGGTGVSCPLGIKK

[2] = target: T1, Zinc finger protein mex-5 (Caenorhabditis elegans, UniProt Q9XUB2); assay: MEX-5/TCR-2 RNA interaction inhibitors, dose response, biochemical, C. elegans, fluorescence polarization (AID 1960)
T1 sequence (Q9XUB2 whole entry): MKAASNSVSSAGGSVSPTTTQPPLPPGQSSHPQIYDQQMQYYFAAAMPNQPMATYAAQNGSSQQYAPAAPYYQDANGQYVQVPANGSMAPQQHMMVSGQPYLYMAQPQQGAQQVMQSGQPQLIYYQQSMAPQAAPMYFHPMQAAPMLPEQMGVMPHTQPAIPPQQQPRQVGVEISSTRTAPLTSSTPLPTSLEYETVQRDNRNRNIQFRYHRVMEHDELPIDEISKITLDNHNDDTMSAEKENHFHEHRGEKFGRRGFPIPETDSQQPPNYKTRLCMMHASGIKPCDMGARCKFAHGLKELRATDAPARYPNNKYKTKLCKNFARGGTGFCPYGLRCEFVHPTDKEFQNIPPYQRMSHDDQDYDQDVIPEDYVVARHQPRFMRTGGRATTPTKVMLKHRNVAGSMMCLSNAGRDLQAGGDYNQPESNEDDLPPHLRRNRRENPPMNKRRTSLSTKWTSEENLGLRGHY

[3] = target: T2, Sentrin-specific protease 1 (Homo sapiens, UniProt Q9P0U3); assay: potency of human SENP1 inhibitors, dose response, biochemical, kinetic FRET (AID 651697); assay type: functional; details: read-out: IC50_Mean
T2 sequence (Q9P0U3 whole entry, the tested form may be a part): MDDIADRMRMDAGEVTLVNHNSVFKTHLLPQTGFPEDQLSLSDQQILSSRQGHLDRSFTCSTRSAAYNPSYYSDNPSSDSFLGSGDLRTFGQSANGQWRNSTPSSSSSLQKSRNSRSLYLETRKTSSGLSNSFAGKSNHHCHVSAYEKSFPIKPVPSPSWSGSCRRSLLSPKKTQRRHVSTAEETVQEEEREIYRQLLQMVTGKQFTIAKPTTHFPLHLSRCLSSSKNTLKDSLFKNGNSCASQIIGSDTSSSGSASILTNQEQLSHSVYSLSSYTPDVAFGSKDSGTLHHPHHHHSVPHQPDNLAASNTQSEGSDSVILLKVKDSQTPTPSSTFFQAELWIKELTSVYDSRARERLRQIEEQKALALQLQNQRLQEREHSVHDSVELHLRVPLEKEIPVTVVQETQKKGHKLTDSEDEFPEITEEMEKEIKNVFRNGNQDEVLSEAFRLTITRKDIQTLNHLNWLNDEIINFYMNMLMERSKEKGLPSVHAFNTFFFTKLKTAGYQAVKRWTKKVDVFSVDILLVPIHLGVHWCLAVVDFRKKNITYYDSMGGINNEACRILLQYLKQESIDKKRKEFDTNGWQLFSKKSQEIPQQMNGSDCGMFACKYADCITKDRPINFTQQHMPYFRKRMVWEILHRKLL

[4] = target: T2, Sentrin-specific protease 1; assay: Dose response confirmation of small molecule inhibitors of the catalytic domain of the SUMO protease, SENP1 in a FRET assay.; assay type: functional; details: read-out: IC50_Mean
[5] = target: T3, RNA-binding protein pos-1 (Caenorhabditis elegans, UniProt G5EF15); assay: inhibitors of POS-1/mex-3 RNA binding, dose response, biochemical, fluorescence polarization (AID 1964);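 also: purified POS-1 fused to maltose binding protein made in E. coli; potency of compounds blocking POS-1 binding to fluorescent RNA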
T3 sequence (G5EF15 whole entry): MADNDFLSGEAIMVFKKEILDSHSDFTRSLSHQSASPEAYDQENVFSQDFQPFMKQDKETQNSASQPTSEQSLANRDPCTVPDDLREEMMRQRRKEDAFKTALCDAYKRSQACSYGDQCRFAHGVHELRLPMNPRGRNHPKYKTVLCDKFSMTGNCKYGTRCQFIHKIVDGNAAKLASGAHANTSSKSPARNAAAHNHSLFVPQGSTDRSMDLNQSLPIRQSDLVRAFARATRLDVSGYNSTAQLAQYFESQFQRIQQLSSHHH

[6] = microbe, parasite or virus in culture; assay type: functional; details: Mycobacterium tuberculosis
[7] = target: Fructose-bisphosphate aldolase (Mycobacterium tuberculosis, UniProt P9WQA3); assay: Fluorescence-based biochemical high throughput dose response assay for inhibitors of the fructose-bisphosphate aldolase (FBA) of M. tuberculosis.; assay type: functional
Sequence of Fructose-bisphosphate aldolase (P9WQA3 whole entry): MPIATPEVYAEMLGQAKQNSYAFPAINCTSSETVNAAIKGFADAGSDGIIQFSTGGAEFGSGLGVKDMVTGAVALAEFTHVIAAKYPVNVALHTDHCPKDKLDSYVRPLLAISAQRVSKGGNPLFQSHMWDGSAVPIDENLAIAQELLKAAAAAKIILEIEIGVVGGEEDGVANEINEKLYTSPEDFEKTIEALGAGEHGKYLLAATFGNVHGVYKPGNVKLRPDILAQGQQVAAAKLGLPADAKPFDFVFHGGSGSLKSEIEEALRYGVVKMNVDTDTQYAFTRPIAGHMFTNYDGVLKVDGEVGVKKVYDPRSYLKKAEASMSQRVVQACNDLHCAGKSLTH

[8] = test system: A549; assay: A549 cell toxicity, dose response, cytotoxicity control, plate reader, cherry-pick samples (AID 687028); assay type: functional, cell-based; details: Homo sapiens
[9] = miR-122 activators in hepatoma reporter cells, dose response, cell-based, Huh7 psiCHECK-miR122, Renilla luciferase, cherry-picked (AID 651956); assay type: functional;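 also: huh7 hepatoma cells stably carrying a psiCHECK-2 miR-122 sensor plasmid; renilla luciferase signal reporting endogenous miR-122 activity after 48 h compound exposure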
[10] = HEK293T cytotoxicity, dose response, cytotoxicity control for miR-122 modulator project, cell-based, inhibitor set, cherry-pick, set 2 (AID 720697); assay type: functional
[11] = control 3'UTR Renilla luciferase suppression, dose response, counter-screen for Shn3 inhibitor project, cell-based, Clone20-Shn3RL, cherry-picked (AID 624133); assay type: functional
[12] = HepG2 cell cytotoxicity, dose response, cytotoxicity control for Shn3 inhibitor project, CellTiter-Glo, cherry-picked (AID 624134); assay type: functional, cell-based
[13] = test system: INS1; assay: beta cell apoptosis inhibitors, cytokine rescue, dose response, luminescence, retest (AID 449756); assay type: functional, cell-based; details: Rattus norvegicus;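 also: cell death triggered by IL-1 beta plus TNF-alpha plus IFN-gamma mixture; protective hits raise ATP signal compared with cytokine alone wells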
[14] = target: COUP transcription factor 2 (Homo sapiens, UniProt P24468); assay: Luminescence-based cell-based high throughput dose response assay to identify inhibitors of COUP-TFII (NR2F2).; assay type: functional;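 also: HEK293 cells transiently cotransfected with COUP-TFII expression vector and reporter; luciferase reporter luminescence driven by COUP-TFII from the pX2-168 reporter plasmid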
Sequence of COUP transcription factor 2 (P24468 whole entry): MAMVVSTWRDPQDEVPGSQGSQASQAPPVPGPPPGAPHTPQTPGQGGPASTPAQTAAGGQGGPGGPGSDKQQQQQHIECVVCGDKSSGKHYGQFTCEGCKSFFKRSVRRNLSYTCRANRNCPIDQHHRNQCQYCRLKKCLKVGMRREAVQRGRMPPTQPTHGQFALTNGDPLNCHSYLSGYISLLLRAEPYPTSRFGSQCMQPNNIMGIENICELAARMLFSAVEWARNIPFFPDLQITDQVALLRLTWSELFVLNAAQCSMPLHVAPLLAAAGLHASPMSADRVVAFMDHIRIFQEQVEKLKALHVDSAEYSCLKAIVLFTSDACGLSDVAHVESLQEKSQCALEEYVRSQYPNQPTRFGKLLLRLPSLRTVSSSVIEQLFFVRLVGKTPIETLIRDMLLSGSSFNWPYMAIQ

[15] = Shn3 3'UTR reporter inhibitors, dose response, cell-based, Clone20 osteoblasts, firefly luciferase, cherry-picked (AID 624132); assay type: functional;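 also: firefly luciferase luminescence from reporter carrying the Shn3 3'UTR in osteoblasts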
[16] = target: Protein Wnt-3a (Mus musculus, UniProt P27467); assay: Wnt3a-driven reporter signaling inhibition, dose response, selectivity assay for Gli-SUFU antagonist project, Wnt-LIGHT cells, luminescence (AID 651570); assay type: functional; details: read-out: IC50_Mean;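 also: Wnt-LIGHT reporter cells stimulated with conditioned medium from Wnt3a-producing cells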
Sequence of Protein Wnt-3a (P27467 whole entry): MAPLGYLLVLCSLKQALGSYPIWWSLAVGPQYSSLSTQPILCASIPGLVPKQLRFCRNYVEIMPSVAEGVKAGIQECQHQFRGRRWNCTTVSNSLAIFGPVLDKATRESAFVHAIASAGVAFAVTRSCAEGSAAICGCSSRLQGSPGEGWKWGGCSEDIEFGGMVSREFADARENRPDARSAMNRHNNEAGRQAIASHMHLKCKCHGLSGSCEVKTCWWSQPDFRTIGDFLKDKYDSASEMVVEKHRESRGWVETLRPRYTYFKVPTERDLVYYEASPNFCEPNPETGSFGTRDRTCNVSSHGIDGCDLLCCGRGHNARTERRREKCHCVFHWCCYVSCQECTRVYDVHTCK

[17] = target: T4, Beta-lactamase (Pseudomonas aeruginosa, UniProt Q79MP6); assay: […] counterscreen for selective VIM-2 inhibitors: dose response biochemical high throughput screening assay to identify inhibitors of IMP-1 metallo-beta-lactamase.
T4 sequence (Q79MP6 whole entry): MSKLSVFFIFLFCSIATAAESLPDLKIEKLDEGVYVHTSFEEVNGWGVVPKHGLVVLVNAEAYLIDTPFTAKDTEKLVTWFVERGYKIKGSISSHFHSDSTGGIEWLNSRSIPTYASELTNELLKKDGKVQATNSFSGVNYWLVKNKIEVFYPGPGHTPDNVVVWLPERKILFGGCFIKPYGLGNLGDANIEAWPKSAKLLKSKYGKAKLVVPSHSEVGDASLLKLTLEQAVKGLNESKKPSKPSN

[18] = target: Beta-lactamase (Salmonella choleraesuis (strain SC-B67), UniProt Q5J463); assay: Epi-absorbance-based counterscreen for selective VIM-2 inhibitors: dose response biochemical high throughput screening assay to identify inhibitors of TEM-1 serine-beta-lactamase.
Sequence of Beta-lactamase (Salmonella choleraesuis (strain SC-B67), UniProt Q5J463) (Q5J463 whole entry): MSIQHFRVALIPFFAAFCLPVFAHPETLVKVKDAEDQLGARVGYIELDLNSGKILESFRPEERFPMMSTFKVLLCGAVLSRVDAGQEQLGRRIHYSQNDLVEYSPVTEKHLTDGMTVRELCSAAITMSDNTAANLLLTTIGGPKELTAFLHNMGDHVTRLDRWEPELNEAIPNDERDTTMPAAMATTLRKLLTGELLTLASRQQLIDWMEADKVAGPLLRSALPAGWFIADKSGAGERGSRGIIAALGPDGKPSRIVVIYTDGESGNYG

[19] = target: Protein-tyrosine kinase 2-beta (Homo sapiens, UniProt Q14289);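 also: potency of inhibitors of PYK2 kinase phosphorylation of poly-GT substrate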
Sequence of Protein-tyrosine kinase 2-beta (Q14289 whole entry): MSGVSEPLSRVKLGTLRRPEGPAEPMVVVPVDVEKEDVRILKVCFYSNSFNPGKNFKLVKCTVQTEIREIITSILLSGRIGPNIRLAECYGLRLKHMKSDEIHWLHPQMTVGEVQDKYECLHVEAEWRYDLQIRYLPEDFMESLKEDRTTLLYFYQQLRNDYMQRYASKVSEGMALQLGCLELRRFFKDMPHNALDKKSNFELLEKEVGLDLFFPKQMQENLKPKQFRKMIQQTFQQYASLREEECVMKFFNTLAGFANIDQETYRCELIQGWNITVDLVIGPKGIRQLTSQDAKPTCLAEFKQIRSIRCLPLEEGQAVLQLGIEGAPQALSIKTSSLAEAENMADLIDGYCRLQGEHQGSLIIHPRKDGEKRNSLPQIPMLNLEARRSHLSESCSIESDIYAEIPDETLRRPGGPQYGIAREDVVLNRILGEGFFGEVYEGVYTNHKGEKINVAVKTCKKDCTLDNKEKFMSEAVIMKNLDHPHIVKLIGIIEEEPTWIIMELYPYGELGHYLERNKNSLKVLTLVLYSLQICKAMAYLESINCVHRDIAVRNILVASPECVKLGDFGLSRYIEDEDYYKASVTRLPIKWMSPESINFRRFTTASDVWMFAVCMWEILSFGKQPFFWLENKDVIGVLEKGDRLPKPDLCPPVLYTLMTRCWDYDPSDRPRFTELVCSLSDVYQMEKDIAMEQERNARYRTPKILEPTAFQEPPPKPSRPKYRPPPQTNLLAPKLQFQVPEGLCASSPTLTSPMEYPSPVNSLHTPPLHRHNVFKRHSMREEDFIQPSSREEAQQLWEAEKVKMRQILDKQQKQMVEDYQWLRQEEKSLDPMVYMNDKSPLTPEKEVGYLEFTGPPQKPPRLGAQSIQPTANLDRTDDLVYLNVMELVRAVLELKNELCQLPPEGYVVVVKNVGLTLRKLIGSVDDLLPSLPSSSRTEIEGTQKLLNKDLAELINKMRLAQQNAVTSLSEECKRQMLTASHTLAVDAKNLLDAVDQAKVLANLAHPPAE

[20] = target: T4, Beta-lactamase; assay: IMP-1 metallo-beta-lactamase inhibitors, dose response, selectivity assay for VIM-2 inhibitor project, biochemical, epi-absorbance (AID 1920)
[21] = target: Hepatocyte nuclear factor 4-alpha (Homo sapiens, UniProt P41235); assay type: functional, cell-based;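 also: biochemical luminescence-based dose-response counterscreen measuring inhibition of HNF4 dimerization, run alongside a screen for blockers of ABHD5–perilipin-5 interaction; split luciferase complementation of HNF4 fusion proteins in cell lysate measuring dimerization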
Sequence of Hepatocyte nuclear factor 4-alpha (P41235 whole entry, the tested form may be a part): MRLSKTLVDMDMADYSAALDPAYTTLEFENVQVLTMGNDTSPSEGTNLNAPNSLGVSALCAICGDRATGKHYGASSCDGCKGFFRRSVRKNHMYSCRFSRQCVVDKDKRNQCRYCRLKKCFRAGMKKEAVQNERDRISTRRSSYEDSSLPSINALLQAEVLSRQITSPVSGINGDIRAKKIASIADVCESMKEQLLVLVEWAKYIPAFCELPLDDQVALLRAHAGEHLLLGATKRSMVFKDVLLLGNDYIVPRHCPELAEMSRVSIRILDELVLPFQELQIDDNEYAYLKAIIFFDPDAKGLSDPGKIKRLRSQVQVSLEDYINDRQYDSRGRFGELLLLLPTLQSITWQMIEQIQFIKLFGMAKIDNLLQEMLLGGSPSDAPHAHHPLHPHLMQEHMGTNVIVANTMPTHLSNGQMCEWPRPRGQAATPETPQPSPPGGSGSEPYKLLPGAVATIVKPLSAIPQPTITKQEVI

[22] = HEK293 cell viability, dose response, counter-screen for EBV LMP1 inhibitor project, dry powder, set 2 (AID 624374); assay type: functional

COc1cc(C2C(C(=O)c3sc(C)nc3C)=C(O)C(=O)N2CCN(C)C)cc(OC)c1OC (configuration not stated)
IC50 [1]: 155 µM (inactive)

Cc1cccc(-c2c3c(=O)n(C)c(=O)n(C)c3c3cccnn23)c1
EC50 [2]: 87.6 µM (active) | IC50 [3]: 27 µM (inactive) | IC50 [4]: 11.3 µM (active) | EC50 [5]: 83.8 µM (active)

C(=C\c1nccc2c1[nH]c1ccccc12)/c1ccccc1
CC50 [6]: 25.4 µM (active) | IC50 [7]: > 0.37 µM (active)

Cc1cccc(OCC(=O)NNC(=O)C2CCCCC2C(=O)O)c1 (configuration not stated)
AC50 [8]: 26.4 µM (active)

C[C@@H]1CN([C@@H](C)CO)S(=O)(=O)c2ccc(C#Cc3ccncc3)cc2O[C@@H]1CN(C)C(=O)Nc1ccc2c(c1)OCO2
AC50 [9]: 6.9 µM (active) | AC50 [10]: 10.7 µM (active)

COc1ccc(CCNc2ncnc3c2oc2ccccc23)cc1OC
AC50 [11]: 1.89 µM (active) | AC50 [12]: 3.79 µM (active) | AC50 [13]: 1.78 µM (active) | IC50 [14]: 5.03 µM (active) | AC50 [15]: 0.524 µM (active) | IC50 [16]: 1.07 µM (active)

O=P(O)(O)c1ccccc1OCc1ccccc1
IC50 [17]: > 59.6 µM (inactive) | IC50 [18]: > 59.6 µM (inactive) | IC50 [19]: 2.21 µM (active) | IC50 [20]: > 59.6 µM (inactive)

COc1ccc(C(C(=O)Nc2c(C)cccc2C)n2c(=O)c(-c3ccco3)nc3ccccc32)cc1 (configuration not stated)
IC50 [21]: 2.42 µM (active)

C[C@@H](NC(=O)C[C@H]1C[C@@H]2c3cc(NC(=O)c4cccnc4)ccc3O[C@@H]2[C@@H](CO)O1)c1ccccc1
AbsAC35 [22]: 222.38 µM
